From patent US20240279202A1 (NURIX THERAPEUTICS, INC., priority 2021, published 2024) come the findings set out here.

This assay has as its target T1, ITK (Homo sapiens, UniProt Q08881).
T1 sequence (Q08881 1-620): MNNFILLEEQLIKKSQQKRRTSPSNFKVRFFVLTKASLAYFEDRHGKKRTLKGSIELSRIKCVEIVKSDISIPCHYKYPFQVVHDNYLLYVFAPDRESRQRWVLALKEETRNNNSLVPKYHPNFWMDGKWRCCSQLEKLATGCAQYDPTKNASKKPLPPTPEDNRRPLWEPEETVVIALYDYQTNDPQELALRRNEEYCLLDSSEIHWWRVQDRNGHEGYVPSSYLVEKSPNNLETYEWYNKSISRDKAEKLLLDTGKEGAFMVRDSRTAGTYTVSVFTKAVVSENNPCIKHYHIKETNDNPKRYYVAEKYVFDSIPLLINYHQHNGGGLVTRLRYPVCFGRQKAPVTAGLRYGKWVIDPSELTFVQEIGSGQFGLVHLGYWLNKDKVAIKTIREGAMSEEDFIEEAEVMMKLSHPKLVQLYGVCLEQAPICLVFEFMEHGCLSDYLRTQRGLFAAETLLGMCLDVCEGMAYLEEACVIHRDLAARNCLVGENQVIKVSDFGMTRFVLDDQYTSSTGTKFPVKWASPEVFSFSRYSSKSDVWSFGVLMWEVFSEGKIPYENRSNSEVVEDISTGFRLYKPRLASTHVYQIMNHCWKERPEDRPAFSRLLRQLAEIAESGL
The assay is described as follows: ITK degradation HiBiT assay. The class given is cell-based. More on the design: expressed in transfected cells; host or cells: Molt4 (ATCC CRL-1552), monoclonal clone 1C10, engineered to carry the HiBiT tag. As to conditions: 4 hrs; for DC50: C-terminal HiBiT-tagged Molt4 cells; for Dmax: MOLT-4, C-terminal HiBiT-tagged Molt4 cells. As to the method: Itk Degradation Hibit Assay
Compounds provided herein were assayed in vitro with ITK HiBit cell lines. Compound dilution series (11-point, 5 fold dilutions in DMSO, columns 2-12 with replicate in rows A/B, C/D, E/F, G,H at 2000× the final required concentrations were prepared in 96 well plates (Falcon, cat. no. 353077). Column 1, rows A-H were control DMSO. The 2000× solutions ranged from 2 mM to 1.024 nM (final assay concentration range 1 μM to […]). The 2000× solutions were added to cells in […], for a final DMSO concentration of 0.5% and final assay compound concentration of 1×. For the cells, C-terminal HiBiT-tagged Molt4 cells (ATCC CRL-1552, monoclonal cell line clone 1C10) were plated at 1×10^6 cells/mL, 100 μL/well ([…]) in complete RPMI (10% FBS, 1% L-glutamine). The cells were incubated with compound 10 and compound 17 for 4 hrs at […]/6% CO2.
Following incubation, 100 μL of complete Nano-Glo HiBiT Lytic Detection Reagent (Nano-Glo HiBiT Lytic Buffer with 1:50 Nano-Glo HiBiT Lytic Substrate and 1:100 LgBiT Protein; Promega cat. no. N3040) was added. Cells were further incubated for 10 min at room temperature (RT). Luminescence units (LU) were read on an EnVision plate reader (Perkin Elmer, 0.1 sec per well). Percent ITK remaining per sample was calculated as follows: […]
Using Graphpad Prism, % ITK remaining values were plotted as a function of compound concentration. To determine DC50 and Dmax values, resulting curves were fit to the Prism curve-fitting equation “log(inhibitor) vs response—Variable slope (four parameters)” (reported best fit value IC50 used as DC50). ITK was measured with antibody-based MSD (Meso-Scale Discovery) assays shown below.

Compound `CC1(C)CCc2c(-c3cc4ccc(C(=O)N5CCC(CC6CCN(c7ccc(C8CCC(=O)NC8=O)cn7)CC6)CC5)cc4[nH]3)n[nH]c2C1` (centres unmarked) [Compound 54, 3-(6-(4-((1-(2-(6,6-dimethyl-4,5,6,7-tetrahydro-1H-indazol-3-yl)-1H-indole-6-carbonyl)piperidin-4-yl)methyl)piperidin-1-yl)pyridin-3-yl)piperidine-2,6-dione] displayed a DC50 of 11 nM. `C[C@@]12Cc3[nH]nc(C(=O)Nc4cnn(C5CN(C(=O)C6CN(c7ccc(C8CCC(=O)NC8=O)cn7)C6)C5)c4)c3C[C@@H]1C2(F)F` (stereo partly drawn) [Compound 55, (4aS,5aR)-N-(1-(1-(1-(5-(2,6-dioxopiperidin-3-yl)pyridin-2-yl)azetidine-3-carbonyl)azetidin-3-yl)-1H-pyrazol-4-yl)-5,5-difluoro-5a-methyl-1,4,4a,5,5a,6-hexahydrocyclopropa[f]indazole-3-carboxamide] had a DC50 of 1.8 nM. Consider `Cn1c(=O)n(C2CCC(=O)NC2=O)c2cccc(N3CCC(C(=O)N4CC(n5cc(NC(=O)c6n[nH]c7c6C[C@@H]6C(F)(F)[C@]6(C)C7)cn5)C4)CC3)c21` (stereo partly drawn) [Compound 56, (4aS,5aR)-N-(1-(1-(1-(1-(2,6-dioxopiperidin-3-yl)-3-methyl-2-oxo-2,3-dihydro-1H-benzo[d]imidazol-4-yl)piperidine-4-carbonyl)azetidin-3-yl)-1H-pyrazol-4-yl)-5,5-difluoro-5a-methyl-1,4,4a,5,5a,6-hexahydrocyclopropa[f]indazole-3-carboxamide], for which it took 0.013 nM to reach half-maximal degradation (DC50) and the Dmax was 64%. `Cn1c(=O)n(C2CCC(=O)NC2=O)c2cccc(N3CCC(CN4CC(n5cc(NC(=O)c6n[nH]c7c6C[C@@H]6C(F)(F)[C@]6(C)C7)cn5)C4)CC3)c21` (stereo partly drawn) [Compound 57, (4aS,5aR)-N-(1-(1-((1-(1-(2,6-dioxopiperidin-3-yl)-3-methyl-2-oxo-2,3-dihydro-1H-benzo[d]imidazol-4-yl)piperidin-4-yl)methyl)azetidin-3-yl)-1H-pyrazol-4-yl)-5,5-difluoro-5a-methyl-1,4,4a,5,5a,6-hexahydrocyclopropa[f]indazole-3-carboxamide] showed a DC50 of less than 0.01 nM and a Dmax of 90%. For `CC1(C)CCc2c(-c3cc4ccc(C(=O)N5CCC(CN6CCN(c7ccc(C8CCC(=O)NC8=O)cn7)CC6)CC5)cc4[nH]3)n[nH]c2C1` (centres unmarked) [Compound 59, 3-(6-(4-((1-(2-(6,6-dimethyl-4,5,6,7-tetrahydro-1H-indazol-3-yl)-1H-indole-6-carbonyl)piperidin-4-yl)methyl)piperazin-1-yl)pyridin-3-yl)piperidine-2,6-dione], in that order: 0.05 nM and 81%. The like results for `CN(c1ccc(C2CCC(=O)NC2=O)cn1)C1CCN(CC2CCN(C(=O)c3ccc4cc(-c5n[nH]c6c5CCC(C)(C)C6)[nH]c4c3)CC2)CC1` (centres unmarked) [Compound 62, 3-(6-((1-((1-(2-(6,6-dimethyl-4,5,6,7-tetrahydro-1H-indazol-3-yl)-1H-indole-6-carbonyl)piperidin-4-yl)methyl)piperidin-4-yl)(methyl)amino)pyridin-3-yl)piperidine-2,6-dione] were, in that order, 0.002 nM and 72%. The like results for `CN(CC1CCN(C(=O)c2ccc3cc(-c4n[nH]c5c4CCC(C)(C)C5)[nH]c3c2)CC1)C1CCN(c2ccc(C3CCC(=O)NC3=O)cn2)CC1` (centres unmarked) [Compound 63, 3-(6-(4-(((1-(2-(6,6-dimethyl-4,5,6,7-tetrahydro-1H-indazol-3-yl)-1H-indole-6-carbonyl)piperidin-4-yl)methyl)(methyl)amino)piperidin-1-yl)pyridin-3-yl)piperidine-2,6-dione] were, in that order, 0.003 nM and 80%.

`CN(C(=O)CCC1CCN(c2ccc(C3CCC(=O)NC3=O)cn2)C1)c1ccc2cc(-c3n[nH]c4c3C[C@@H]3C(F)(F)[C@]3(C)C4)[nH]c2c1` (stereo partly drawn) [Compound 70, N-(2-((4aS,5aR)-5,5-difluoro-5a-methyl-1,4,4a,5,5a,6-hexahydrocyclopropa[f]indazol-3-yl)-1H-indol-6-yl)-3-(1-(5-(2,6-dioxopiperidin-3-yl)pyridin-2-yl)pyrrolidin-3-yl)-N-methylpropanamide] came in with a Dmax of 53%. The compound `CN(C(=O)CN1CC2(CCN(c3ccc4c(c3)C(=O)N(C3CCC(=O)NC3=O)C4=O)C2)C1)c1ccc2cc(-c3n[nH]c4c3C[C@@H]3C(F)(F)[C@]3(C)C4)[nH]c2c1` (some centres unmarked) [Compound 71] yielded a DC50 of 5.2 nM and a Dmax of 70%. For the compound `CN(C(=O)C1CCN(CC2CCN(c3ccc(C4CCC(=O)NC4=O)cn3)CC2)CC1)c1ccc2cc(-c3n[nH]c4c3C[C@@H]3C(F)(F)[C@]3(C)C4)[nH]c2c1` (stereo partly drawn) [Compound 74, N-(2-((4aS,5aR)-5,5-difluoro-5a-methyl-1,4,4a,5,5a,6-hexahydrocyclopropa[f]indazol-3-yl)-1H-indol-6-yl)-1-((1-(5-(2,6-dioxopiperidin-3-yl)pyridin-2-yl)piperidin-4-yl)methyl)-N-methylpiperidine-4-carboxamide], it took 10.5 nM to reach half-maximal degradation (DC50). As for `C[C@@]12Cc3[nH]nc(C(=O)Nc4cnn(C5CN(CC6CCN(c7ccc(C8CCC(=O)NC8=O)cc7)CC6)C5)c4)c3C[C@@H]1C2(F)F` (stereo partly drawn) [Compound 91, (4aS,5aR)-N-(1-(1-((1-(4-(2,6-dioxopiperidin-3-yl)phenyl)piperidin-4-yl)methyl)azetidin-3-yl)-1H-pyrazol-4-yl)-5,5-difluoro-5a-methyl-1,4,4a,5,5a,6-hexahydrocyclopropa[f]indazole-3-carboxamide], the half-maximal degradation concentration (DC50) was found to be 0.24 nM and the Dmax was found to be 85%. Turning to `C[C@@]12Cc3[nH]nc(C(=O)Nc4cnn(C5CCN(CC6CCN(c7ccc(C8CCC(=O)NC8=O)cc7)CC6)CC5)c4)c3C[C@@H]1C2(F)F` (stereo partly drawn) [Compound 92, (4aS,5aR)-N-(1-(1-((1-(4-(2,6-dioxopiperidin-3-yl)phenyl)piperidin-4-yl)methyl)piperidin-4-yl)-1H-pyrazol-4-yl)-5,5-difluoro-5a-methyl-1,4,4a,5,5a,6-hexahydrocyclopropa[f]indazole-3-carboxamide], the DC50 was less than 0.01 nM and the Dmax was determined as 89%. The like results for `C[C@@]12Cc3[nH]nc(C(=O)Nc4cnn([C@H]5CCN(CC6CCN(c7ccc(C(=O)N[C@H]8CCC(=O)NC8=O)nc7)CC6)C[C@@H]5F)c4)c3C[C@@H]1C2(F)F` [Compound 93, (4aS,5aR)-N-(1-((3S,4S)-1-((1-(6-(((S)-2,6-dioxopiperidin-3-yl)carbamoyl)pyridin-3-yl)piperidin-4-yl)methyl)-3-fluoropiperidin-4-yl)-1H-pyrazol-4-yl)-5,5-difluoro-5a-methyl-1,4,4a,5,5a,6-hexahydrocyclopropa[f]indazole-3-carboxamide] were, in that order, 1.9 nM and 97%. For `C[C@@]12Cc3[nH]nc(C(=O)Nc4cnn([C@@H]5CCN(CC6CCN(c7ccc(C(=O)N[C@H]8CCC(=O)NC8=O)nc7)CC6)C[C@H]5F)c4)c3C[C@@H]1C2(F)F` [Compound 94, (4aS,5aR)-N-(1-((3R,4R)-1-((1-(6-(((S)-2,6-dioxopiperidin-3-yl)carbamoyl)pyridin-3-yl)piperidin-4-yl)methyl)-3-fluoropiperidin-4-yl)-1H-pyrazol-4-yl)-5,5-difluoro-5a-methyl-1,4,4a,5,5a,6-hexahydrocyclopropa[f]indazole-3-carboxamide], in that order: 3.4 nM and 83%. The like results for `C[C@@]12Cc3[nH]nc(C(=O)Nc4cnn(C5CCN(CC6(F)CCN(c7ccc(C8CCC(=O)NC8=O)cc7)CC6)CC5)c4)c3C[C@@H]1C2(F)F` (stereo partly drawn) [Compound 97, (4aS,5aR)-N-(1-(1-((1-(4-(2,6-dioxopiperidin-3-yl)phenyl)-4-fluoropiperidin-4-yl)methyl)piperidin-4-yl)-1H-pyrazol-4-yl)-5,5-difluoro-5a-methyl-1,4,4a,5,5a,6-hexahydrocyclopropa[f]indazole-3-carboxamide] were, in that order, 2.6 nM and 88%.
